Values of other authors as cited in US20100210573A1, “COMPOUND AND COMPOSITIONS FOR TREATMENT OF DISEASE” (Citrox Limited, priority 2008, published 2010).

Assays:
[1] = test system: Leishmania donovani promastigotes and amastigotes; conditions: in vitro; Mittra et al., Molecular Medicine 6, 2000
[2] = test system: Trypanosoma brucei gambiense; conditions: cell cultures; Antimicrobial Agents and Chemother. 48, 2004

Compound | growth of Leishmania donovani promastigotes and amastigotes [1] | apoptosis of Trypanosoma brucei gambiense [2]
O=c1cc(-c2ccc(O)c(O)c2)oc2cc(O)cc(O)c12 [Luteolin] | inhibit the growth | 
O=c1c(O)c(-c2ccc(O)c(O)c2)oc2cc(O)cc(O)c12 [Quercetin] | inhibit the growth | induce apoptosis
